Data published in patent publication US4012367A, “Anti-ulcer polypeptides containing L-aspartic acid and intermediates thereto” (G. D. Searle & Co., priority 1976, dated 1977).
Non-standard residues stand in square brackets, D forms with d. Residues, ends and D or L forms follow the SMILES beside them. *: point of attachment. Boc = CC(C)(C)OC(=O)*

Tested on: gastric acid secretion induced by the administration of pentagastrin
Experiment: Inhibition of pentagastrin-induced gastric acid secretion in anesthetized rats with perfused stomach (modified Ghosh and Schild)
Assay type: in vivo
Set-up: key to rating in assay: antagonism of the secretory response induced by pentagastrin: A test compound is considered active if the standard pentagastrin response is blocked to the extent of at least 50%
Details: urethane-anesthetized male Charles River rats, gastric effluent pH, pentagastrin 0.1 mcg./rat intravenously
Source text: The compounds of the present invention are useful in consequence of their valuable pharmacological properties. They are, for example, gastric anti-secretory agents as evidenced by their ability to inhibit the gastric acid secretion induced by the administration of pentagastrin.
The assay utilized for detection of that property is a modification of the procedure described by Ghosh and Schild, J. Physiol., Lond., 128:35-36P (1955); Br. J. Pharmacol. Chemother., […]:54-61 (1958); and by Smith et al., Br. J. Pharmacol., 38:206-213 (1970). The details of that assay are as follows:
A group of male Charles River rats weighing 300-400 g. are anesthetized by the intramuscular administration of urethane at a dose of 1.5 g./kg. The trachea is exposed and cannulated and a polyethylene tube is passed through the esophagus into the cardiac junction of the stomach and is ligated in place in the neck, excluding the vagal nerves. The external jugular vein is exposed and cannulated to facilitate intravenous administration. The femoral artery is exposed and cannulated for recording of blood pressure. The abdomen is opened. […] The test compounds are evaluated for their ability to antagonize the secretory response induced by the administration of pentagastrin. […]

Structure (SMILES)	inhibition of gastric acid secretion induced by pentagastrin (result in words)	rating in assay: antagonism of the secretory response induced by pentagastrin
CSCC[C@H](NC(=O)OC(C)(C)C)C(=O)N[C@@H](CC(=O)O)C(=O)N[C@H](C)C(N)=O [N-t-butoxycarbonyl-L-methionyl-L-aspartyl-D-alanine amide] (Boc-Met-Asp-[dA]-NH2)	particularly active	
CSCC[C@H](NC(=O)[C@H](Cc1c[nH]c2ccccc12)NC(=O)OC(C)(C)C)C(=O)N[C@@H](CC(=O)O)C(=O)N[C@H](C)C(N)=O [N-t-butoxycarbonyl-L-tryptophanyl-L-methionyl-L-aspartyl-D-alanine amide] (Boc-WMD[dA]-NH2)		active
